The values below are quoted from earlier work in patent US6531488B1, “Method of treating neurodegenerative diseases” (Merck & Co., Inc., priority 1998, dated 2003).

Structures can show the parent of a compound that is named as a salt.

The data set deals with patients with Alzheimer's disease. The settings on record: ARICEPT administered alone; patients diagnosed by NINCDS and DMS III-R criteria; assessed with ADAS-cog and CIBIC.

On to `COc1cc2c(cc1OC)C(=O)C(CC1CCN(Cc3ccccc3)CC1)C2` (racemic) [ARICEPT, (±)-2,3-dihydro-5,6-diomethoxy-2-[[1-(phenylmethyl)-4-piperidinyl]methyl]-1H-indene-1-one hydrochloride], for which the “effectiveness for the treatment of the symptoms of Alzheimer's disease” value is listed as “effective”.
